# Source: patent US12486269B2 (Aconcagua Bio, Inc., priority 2024, dated 2025)
# How the values were obtained:
# [1] = molecular target: T1, COS-7/AMY3 (human calcitonin receptor (CTR) and RAMP3) (Homo sapiens, UniProt O60896+P30988); test: Amylin Receptor cAMP Assay II; format: cell-based; conditions: values marked **: Amylin Receptor cAMP Assay II; COS-7/AMY3 cells, cAMP dynamic 2 kit, 30 min; read-out: Amylin Receptor cAMP Stimulation Activity: EC50
# T1 construct: expressed in transfected cells; host or cells: COS-7
# In short: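 Agonist-induced cAMP was quantified by HTRF ratio at 665/615 nm and expressed as % of the window from vehicle to MAX control. Stimulation lasted 30 min at 37 °C in HBSS/20 mM HEPES/0.5 mM IBMX/0.1% casein, using stable human CTR+RAMP3 (AMY3) COS-7 cells at 2000 per well.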
# [2] = molecular target: T2, human calcitonin receptor (CTR) (Homo sapiens, UniProt P30988); test: Calcitonin Receptor (CTR) cAMP Assay; format: cell-based; conditions: COS7-human CTR Clone #2 stable cell line, cAMP dynamic 2 kit, 30 min; read-out: Calcitonin Receptor cAMP Stimulation Activity: EC50
# T2 construct: expressed in transfected cells; host or cells: COS-7 (COS7-human CTR Clone #2)
# T2 sequence (P30988 25-474): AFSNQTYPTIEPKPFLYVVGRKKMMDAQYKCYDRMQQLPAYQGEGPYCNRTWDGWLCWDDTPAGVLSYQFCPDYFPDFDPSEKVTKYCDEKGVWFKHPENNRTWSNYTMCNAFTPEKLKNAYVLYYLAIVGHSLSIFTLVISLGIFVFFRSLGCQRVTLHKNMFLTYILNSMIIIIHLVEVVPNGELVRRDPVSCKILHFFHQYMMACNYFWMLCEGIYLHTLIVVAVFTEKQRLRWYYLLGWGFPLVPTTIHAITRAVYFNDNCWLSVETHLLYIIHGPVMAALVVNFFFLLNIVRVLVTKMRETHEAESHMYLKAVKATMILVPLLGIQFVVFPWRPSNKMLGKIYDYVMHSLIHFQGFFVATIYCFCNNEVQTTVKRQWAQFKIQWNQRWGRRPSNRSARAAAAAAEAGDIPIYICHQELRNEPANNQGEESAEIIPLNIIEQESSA
# In short: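 cAMP accumulation was measured by HTRF cAMP dynamic 2 read at 665/615 nm, 1 h at room temperature, with results scaled between vehicle and positive control. Before detection, COS7-human CTR stable cells were stimulated 30 min at 37 °C with compound (4-fold dilutions) in IBMX-containing HBSS/HEPES/casein buffer.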
# T1 sequence (O60896 24-148, one chain of several): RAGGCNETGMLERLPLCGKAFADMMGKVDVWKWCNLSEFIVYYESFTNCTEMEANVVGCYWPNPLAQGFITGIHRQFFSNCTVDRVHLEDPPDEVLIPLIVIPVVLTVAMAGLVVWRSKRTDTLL
SMILES,EC50 [1],EC50 [2]
"COc1cccc2c1CC[C@H]2Nc1nccc2cc(-c3c4c(nc(CCc5ccc(F)cc5)c3-c3n[nH]c(=O)o3)[C@@H]3COCCN3C4=O)sc12 [Compound 174, (R)-2-(4-fluorophenethyl)-4-(7-(((R)-4-methoxy-2,3-dihydro-1H-inden-1-yl)amino)thieno[2,3-c]pyridin-2-yl)-3-(5-oxo-4,5-dihydro-1,3,4-oxadiazol-2-yl)-7,8,10,10a-tetrahydro-5H-pyrido[2′,3′:3,4]pyrrolo[2,1-c][1,4]oxazin-5-one]",31.9 nM,0.347 nM
"COc1cccc2c1CC[C@H]2Nc1nccc2cc(-c3c(-c4n[nH]c(=O)o4)c(CCc4ccc(F)cc4)nc4c3S(=O)(=O)N3CCC[C@@H]43)sc12 [Compound 175, 5-((S)-2-(4-fluorophenethyl)-4-(7-(((R)-4-methoxy-2,3-dihydro-1H-inden-1-yl)amino)thieno[2,3-c]pyridin-2-yl)-5,5-dioxido-7,8,9,9a-tetrahydropyrrolo[1′,2′:2,3]isothiazolo[4,5-b]pyridin-3-yl)-1,3,4-oxadiazol-2(3H)-one]",26.8 nM,0.741 nM
"N#Cc1ccc(Cn2c(=O)oc3cc(-c4c5c(nc(CCc6ccc(F)cc6)c4-c4n[nH]c(=O)o4)[C@@H]4CCCN4C5=O)ccc32)nc1 [Compound 176, 6-[[6-[(9aS)-2-[2-(4-fluorophenyl)ethyl]-5-oxo-3-(2-oxo-3H-1,3,4-oxadiazol-5-yl)-7,8,9,9a-tetrahydropyrido[2,3-a]pyrrolizin-4-yl]-2-oxo-1,3-benzoxazol-3-yl]methyl]pyridine-3-carbonitrile]",10.7 nM,0.557 nM
"O=C1c2c(nc(CCc3ccc(F)cc3)c(-c3n[nH]c(=O)o3)c2-c2cnc3c(ccn3Cc3ccc(F)cn3)c2)[C@@H]2CCCN12 [Compound 177, (S)-5-(2-(4-fluorophenethyl)-4-(1-((5-fluoropyridin-2-yl)methyl)-1H-pyrrolo[2,3-b]pyridin-5-yl)-5-oxo-7,8,9,9a-tetrahydro-5H-pyrido[2,3-a]pyrrolizin-3-yl)-1,3,4-oxadiazol-2(3H)-one]",1810 nM,39.4 nM
"COc1cccc2c1CC[C@H]2Nc1nccc2cc(-c3c4c(nc(CCc5ccc(F)cc5)c3-c3n[nH]c(=O)o3)[C@]3(C)CCCN3C4=O)sc12 [Compound 178, 5-((S)-2-(4-fluorophenethyl)-4-(7-(((R)-4-methoxy-2,3-dihydro-1H-inden-1-yl)amino)thieno[2,3-c]pyridin-2-yl)-9a-methyl-5-oxo-7,8,9,9a-tetrahydro-5H-pyrido[2,3-a]pyrrolizin-3-yl)-1,3,4-oxadiazol-2(3H)-one]",203 nM,3.19 nM
"COc1cccc2c1CC[C@H]2Nc1nccc2cc(-c3c4c(nc(CCc5ccc(F)cc5)c3-c3n[nH]c(=O)o3)[C@]3(C)COCCN3C4=O)sc12 [Compound 179, (R)-2-(4-fluorophenethyl)-4-(7-(((R)-4-methoxy-2,3-dihydro-1H-inden-1-yl)amino)thieno[2,3-c]pyridin-2-yl)-10a-methyl-3-(5-oxo-4,5-dihydro-1,3,4-oxadiazol-2-yl)-7,8,10,10a-tetrahydro-5H-pyrido[2′,3′:3,4]pyrrolo[2,1-c][1,4]oxazin-5-one]",34.2 nM,1.25 nM
"COc1cccc2c1CC[C@H]2Nc1nccc2cc(-c3c4c(nc(CCc5ccc(F)cc5)c3-c3n[nH]c(=O)o3)C35CC3CCN5C4=O)sc12 (stereo partly drawn) [Compound 180, 5-(8-(4-fluorophenethyl)-6-(7-(((R)-4-methoxy-2,3-dihydro-1H-inden-1-yl)amino)thieno[2,3-c]pyridin-2-yl)-5-oxo-1,1a,2,3-tetrahydro-5H-cyclopropa[g]pyrido[2,3-a]pyrrolizin-7-yl)-1,3,4-oxadiazol-2(3H)-one]",12.7 nM,0.559 nM
"COc1cccc2c1CC[C@H]2Nc1nccc2cc(-c3c(-c4n[nH]c(=O)o4)c(CCc4ccc(F)cc4)nc4c3C(=O)N3C[C@H]5C[C@@]43C5)sc12 [Compound 181, (R)-5-(2-(4-fluorophenethyl)-4-(7-((4-methoxy-2,3-dihydro-1H-inden-1-yl)amino)thieno[2,3-c]pyridin-2-yl)-5-oxo-8,9-dihydro-5H,7H-8,9a-methanopyrido[2,3-a]pyrrolizin-3-yl)-1,3,4-oxadiazol-2(3H)-one]",3.5 nM,0.105 nM
"COc1cccc2c1CC[C@H]2Nc1nccc2cc(-c3c4c(nc(CCc5ccc(F)cc5)c3-c3n[nH]c(=O)o3)[C@H]3N(CCC3(C)C)C4=O)sc12 [Compound 182, 5-((S)-2-(4-fluorophenethyl)-4-(7-(((R)-4-methoxy-2,3-dihydro-1H-inden-1-yl)amino)thieno[2,3-c]pyridin-2-yl)-9,9-dimethyl-5-oxo-7,8,9,9a-tetrahydro-5H-pyrido[2,3-a]pyrrolizin-3-yl)-1,3,4-oxadiazol-2(3H)-one]",52.9 nM,7.85 nM
"O=C1c2c(nc(CCc3ccc(F)cc3)c(-c3n[nH]c(=O)o3)c2-c2cc3ccnc(N[C@@H]4CCc5c(F)cc(F)cc54)c3s2)[C@@H]2CCCN12 [Compound 183, 5-((S)-4-(7-(((R)-4,6-difluoro-2,3-dihydro-1H-inden-1-yl)amino)thieno[2,3-c]pyridin-2-yl)-2-(4-fluorophenethyl)-5-oxo-7,8,9,9a-tetrahydro-5H-pyrido[2,3-a]pyrrolizin-3-yl)-1,3,4-oxadiazol-2(3H)-one]",4.23 nM,0.143 nM
"O=C1c2c(nc(CCc3ccc(F)cc3)c(-c3n[nH]c(=O)o3)c2-c2cc3ccnc(N[C@@H]4CCc5cc(F)ccc54)c3s2)[C@@H]2CCCN12 [Compound 184, 5-((S)-4-(7-(((R)-5-fluoro-2,3-dihydro-1H-inden-1-yl)amino)thieno[2,3-c]pyridin-2-yl)-2-(4-fluorophenethyl)-5-oxo-7,8,9,9a-tetrahydro-5H-pyrido[2,3-a]pyrrolizin-3-yl)-1,3,4-oxadiazol-2(3H)-one]",3.59 nM,0.247 nM
"COc1cccc2c1CC[C@H]2Nc1nccc2cc(-c3c4c(nc(C(C)C)c3-c3n[nH]c(=O)o3)[C@@H]3CCCN3C4=O)sc12 [Compound 185, 5-((S)-2-isopropyl-4-(7-(((R)-4-methoxy-2,3-dihydro-1H-inden-1-yl)amino)thieno[2,3-c]pyridin-2-yl)-5-oxo-7,8,9,9a-tetrahydro-5H-pyrido[2,3-a]pyrrolizin-3-yl)-1,3,4-oxadiazol-2(3H)-one]",231 nM,15.2 nM
"CC1(C)Oc2cc(-c3c4c(nc(CCc5ccc(F)cc5)c3-c3n[nH]c(=O)o3)[C@@H]3CCCN3C4=O)ccc2N(Cc2ccc(F)cn2)C1=O [Compound 186, (S)-7-(2-(4-fluorophenethyl)-5-oxo-3-(5-oxo-4,5-dihydro-1,3,4-oxadiazol-2-yl)-7,8,9,9a-tetrahydro-5H-pyrido[2,3-a]pyrrolizin-4-yl)-4-((5-fluoropyridin-2-yl)methyl)-2,2-dimethyl-2H-benzo[b][1,4]oxazin-3(4H)-one]",37.2 nM,0.682 nM
"COc1c(F)ccc2c1CC[C@H]2Nc1nc(C)cc2cc(-c3c4c(nc(CCc5ccc(F)cc5)c3-c3n[nH]c(=O)o3)[C@@H]3CCCN3C4=O)sc12 [Compound 187, 5-((S)-4-(7-(((R)-5-fluoro-4-methoxy-2,3-dihydro-1H-inden-1-yl)amino)-5-methylthieno[2,3-c]pyridin-2-yl)-2-(4-fluorophenethyl)-5-oxo-7,8,9,9a-tetrahydro-5H-pyrido[2,3-a]pyrrolizin-3-yl)-1,3,4-oxadiazol-2(3H)-one]",0.608 nM,0.0484 nM
"COc1cccc2c1CC[C@H]2Nc1nc(C(F)F)cc2cc(-c3c4c(nc(CCc5ccc(F)cc5)c3-c3n[nH]c(=O)o3)[C@@H]3CCCN3C4=O)sc12 [Compound 188, 5-((S)-4-(5-(difluoromethyl)-7-(((R)-4-methoxy-2,3-dihydro-1H-inden-1-yl)amino)thieno[2,3-c]pyridin-2-yl)-2-(4-fluorophenethyl)-5-oxo-7,8,9,9a-tetrahydro-5H-pyrido[2,3-a]pyrrolizin-3-yl)-1,3,4-oxadiazol-2(3H)-one]",6.57 nM,0.223 nM
"COc1c(F)ccc2c1CC[C@H]2Nc1nccc2cc(-c3c4c(nc(CCc5ccc(F)cc5)c3-c3n[nH]c(=O)o3)C35CC(CN3C4=O)C5)sc12 [Compound 189, (R)-5-(4-(7-((5-fluoro-4-methoxy-2,3-dihydro-1H-inden-1-yl)amino)thieno[2,3-c]pyridin-2-yl)-2-(4-fluorophenethyl)-5-oxo-8,9-dihydro-5H,7H-8,9a-methanopyrido[2,3-a]pyrrolizin-3-yl)-1,3,4-oxadiazol-2(3H)-one]",0.213 nM,0.0262 nM
